According to patent US20200405699A1, “TREATING SICKLE CELL DISEASE WITH A PYRUVATE KINASE R ACTIVATING COMPOUND” (FORMA Therapeutics, Inc., priority 2018, published 2020):
Read-outs that look alike come from different tables or passages of the source. Values belong to the compound of their own block, whether it stands above or below them.

How the values were obtained:
[1] = biological target: PKR(G332S) (Homo sapiens, UniProt P30613, G332S); assay: Luminescence Assay (Kinase Glo Plus), PKR G332S; format: biochemical; conditions: read-out: AC50 (PKRG332S)
PKR(G332S), sequence (P30613 whole entry G332S): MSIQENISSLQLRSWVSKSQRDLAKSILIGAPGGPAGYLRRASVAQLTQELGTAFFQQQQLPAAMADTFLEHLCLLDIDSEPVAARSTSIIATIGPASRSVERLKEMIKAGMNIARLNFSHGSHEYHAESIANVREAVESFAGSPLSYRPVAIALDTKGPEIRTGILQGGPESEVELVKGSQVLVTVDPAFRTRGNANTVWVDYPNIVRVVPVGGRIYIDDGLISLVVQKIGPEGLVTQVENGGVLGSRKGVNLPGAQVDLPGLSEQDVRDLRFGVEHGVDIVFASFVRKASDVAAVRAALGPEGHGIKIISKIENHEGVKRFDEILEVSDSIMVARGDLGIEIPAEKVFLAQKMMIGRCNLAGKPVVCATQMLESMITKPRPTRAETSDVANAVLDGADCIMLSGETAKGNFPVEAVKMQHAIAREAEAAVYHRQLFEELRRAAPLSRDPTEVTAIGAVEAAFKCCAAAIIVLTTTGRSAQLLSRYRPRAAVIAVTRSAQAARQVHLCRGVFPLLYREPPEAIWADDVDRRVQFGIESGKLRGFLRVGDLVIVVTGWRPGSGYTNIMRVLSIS
Procedure: (§1) For each tested compound, the ability to activate PKR was determined using the following Luminescence Assay. The effect of phosphorylation of adenosine-5′-diphosphate (ADP) by PKR is determined by the Kinase Glo Plus Assay (Promega) in the presence or absence of FBP (D-fructose-1,6-diphosphate; BOC Sciences, CAS: 81028-91-3) as follows. Unless otherwise indicated, all reagents are purchased from Sigma-Aldrich. All reagents are prepared in buffer containing 50 mM Tris-HCl, 100 mM KCl, 5 mM MgCl2, and 0.01% Triton X100, 0.03% BSA, and 1 mM DTT. Enzyme and PEP (phosphoenolpyruvate) are added at 2× to all wells of an assay-ready plate containing serial dilutions of test compounds or DMSO vehicle. Final enzyme concentrations for PKR(wt), PKR(R510Q), and PKR(G332S) are 0.8 nM, 0.8 nM, and 10 nM respectively. Final PEP concentration is 100 μM. The Enzyme/PEP mixture is incubated with compounds for 30 minutes at RT before the assay is initiated with the addition of 2×ADP and KinaseGloPlus. Final concentration of ADP is 100 μM. […] For assays containing FBP, that reagent is added at 30 μM upon reaction initiation. Reactions are allowed to progress for 45 minutes at RT until luminescence is recorded by the BMG PHERAstar FS Multilabel Reader. The compound is tested in triplicate at concentrations ranging from 42.5 μM to 2.2 nM in 0.83% DMSO. AC50 measurements were obtained by the standard four parameter fit algorithm of ActivityBase XE Runner (max, min, slope and AC50). The AC50 value for a compound is the concentration (μM) at which the activity along the four parameter logistic curve fit is halfway between minimum and maximum activity.
(§2) As set forth in Tables 2 and 3 below and in FIG. 1, AC50 values are defined as follows: ≤0.1 μM (+++); >0.1 μM and ≤1.0 μM (++); >1.0 μM and ≤40 μM (+); >40 μM (0).

[2] = biological target: T1, PKR-R510Q (Homo sapiens, UniProt P30613, R510Q); assay: Luminescence Assay (Kinase Glo Plus), PKR R510Q; format: biochemical; conditions: read-out: AC50 (PKRR510Q)
T1 sequence (P30613 whole entry R510Q): as the sequence (P30613 whole entry G332S) above, with S332G, R510Q counted along it
Procedure: as §1, §2

[3] = biological target: wt-PKR (Homo sapiens, UniProt P30613); assay: Enzyme assay of Example 3 (kinetic parameters, activation), wt-PKR; format: biochemical
wt-PKR, sequence (P30613 whole entry): as the sequence (P30613 whole entry G332S) above, with S332G counted along it
Procedure: (§3) Tests were conducted in the presence and absence of fructose-1,6-bisphosphate (FBP), a known allosteric activator of PKR.

[4] = biological target: T1, PKR-R510Q; assay: Enzyme assay of Example 3 (kinetic parameters, activation), PKR-R510Q; format: biochemical; conditions: for Vmax (normalized): 2 μM Compound 1, normalized within row
Procedure: as §3

[5] = biological target: T2, wt-PKR in mature human erythrocytes (Homo sapiens, UniProt P30613); assay: PKR activation in human red blood cells ex vivo (Biovision Pyruvate Kinase Assay); format: cell-based; conditions: human RBCs
T2 construct: evaluated in purified RBCs purchased from Research Blood Components; host or cells: purified human red blood cells from donors
T2 sequence (P30613 whole entry): as the sequence (P30613 whole entry G332S) above, with S332G counted along it
Procedure: The activation of wt-PKR by Compound 1 in mature human erythrocytes ex vivo was evaluated in purified RBCs purchased from Research Blood Components. Cells treated with Compound 1 for 3 hr in glucose-containing media were washed, lysed, and assayed using a Biovision Pyruvate Kinase Assay (K709-100). The assay was repeated multiple times to account for donor-to-donor variability and the relatively narrow dynamic range.

[6] = biological target: T3, PKR in mouse RBCs (Mus musculus, UniProt P53657); assay: PKR activation in mouse red blood cells; format: cell-based
T3 construct: Mouse RBCs were isolated fresh from whole blood using a Ficoll gradient; endogenous in cells; host or cells: mouse red blood cells isolated fresh from whole blood
T3 sequence (P53657 whole entry): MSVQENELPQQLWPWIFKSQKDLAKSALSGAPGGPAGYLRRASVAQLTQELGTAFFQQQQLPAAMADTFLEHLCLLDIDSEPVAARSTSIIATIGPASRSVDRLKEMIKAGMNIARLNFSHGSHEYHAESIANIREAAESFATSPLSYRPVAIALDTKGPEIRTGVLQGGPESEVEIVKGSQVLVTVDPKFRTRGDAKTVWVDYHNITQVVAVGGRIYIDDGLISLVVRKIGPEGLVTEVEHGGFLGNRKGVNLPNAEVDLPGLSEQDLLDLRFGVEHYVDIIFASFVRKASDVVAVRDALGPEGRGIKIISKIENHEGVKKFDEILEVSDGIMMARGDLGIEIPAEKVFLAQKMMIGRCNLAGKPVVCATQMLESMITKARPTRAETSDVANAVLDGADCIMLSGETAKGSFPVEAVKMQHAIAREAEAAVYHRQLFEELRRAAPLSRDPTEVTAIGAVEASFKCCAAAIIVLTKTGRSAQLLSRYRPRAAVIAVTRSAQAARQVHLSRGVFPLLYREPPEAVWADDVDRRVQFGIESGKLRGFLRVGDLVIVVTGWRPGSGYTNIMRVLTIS
From the text: Mouse RBCs were isolated fresh from whole blood using a Ficoll gradient and assayed with methods similar to those used in the human RBCs assays.

[7] = test system: 2,3-DPG levels in whole blood; assay: PK/PD study in wild type mice, 2,3-DPG levels in blood; format: in vivo, Balb/c mice; conditions: oral QD x7, doses ≥120 mg/kg (120 and 240 mg/kg), blood 24 h after dosing
Procedure: (§4) Two pharmacokinetic (PK)/phamacodynamic (PD) studies were conducted in Balb/c mice that were administered Compound 1 once daily by oral gavage (formulated in 10% Cremophor EL/10% PG/80% DI water) for 7 days (QD×7) at doses of 0 (vehicle), 3.75, 7.5, 15, 30, 60 mg/kg (Study 1); 0 (vehicle), 7.5, 15, 30, 60, 120, or 240 mg/kg (Study 2). On the 7th day, whole blood was collected 24 hours after dosing and snap frozen. Samples were later thawed and analyzed by LC/MS for 2,3-DPG and ATP levels.

[8] = PK/PD study in wild type mice, tolerability; format: in vivo; conditions: oral QD x7, both studies
Procedure: as §4

[9] = PK/PD study in wild type mice, exposure; format: in vivo, Balb/c mice; conditions: oral; for AUC(0-t): Balb/c, mouse, in vivo, read-out: AUC0-24
Procedure: as §4

[10] = test system: 2,3-DPG blood levels; assay: SAD/MAD study in healthy volunteers, blood 2,3-DPG levels (LC-MS/MS); format: in vivo, human
From the text: (§5) This is a first-in-human (FIH), Phase 1 study of Compound 1 that will characterize the safety, PK, and PD of Compound 1 after a single dose and after repeated dosing first in healthy adult volunteers and then in adolescents or adults with sickle cell disease. Initially, a dose range of Compound 1 in single ascending dose (SAD) escalation cohorts will be explored in healthy subjects. Enrollment of healthy subjects into 2-week multiple ascending dose (MAD) escalation cohorts will be initiated once the safety and PK from at least two SAD cohorts is available to inform the doses for the 2-week MAD portion of the study. The MAD cohorts will then run in parallel to the single dose cohorts. A single dose cohort is planned to understand food effects (FE) on the PK of Compound 1. […] Multiple dose studies in SCD subjects will then be initiated upon completion of MAD studies in healthy volunteers. Compound 1 will be administered in 25 mg and 100 mg tablets delivered orally.
(§6) Four healthy SAD cohorts were evaluated at doses of 200, 400, 700, and 1000 mg, and four healthy MAD cohorts received 200 to 600 mg total daily doses for 14 days at QD or BID dosing (100 mg BID, 200 mg BID, 300 mg BID, and 400 mg QD). In the food effect (FE) cohort, 10 healthy subjects received 200 mg of Compound 1 QD with and without food.
In the SAD cohorts, the subjects' blood 2,3-DPG levels were measured periodically after dosing by a qualified LC-MS/MS method for the quantitation of 2,3-DPG in blood. Decreased 2,3-DPG blood levels were observed 6 hours following a single dose of Compound 1 at all dose levels (earlier timepoints were not collected). Maximum decreases in 2,3-DPG levels generally occurred ˜24 hours after the first dose with the reduction sustained ˜48-72 hr postdose. Table 12 reports the median percentage change in 2,3-DPG blood levels, relative to baseline, measured over time in healthy volunteers after a single dose of Compound 1 (200 mg, 400 mg, 700 mg, or 1000 mg) or placebo. Accordingly, the median reduction in the concentration of 2,3-DPG, relative to baseline, was at least about 30% at all dose levels tested 24 hours after administration of the single dose.
In the MAD cohorts, the subjects' blood 2,3-DPG levels were measured periodically after dosing by a qualified LC-MS/MS method for the quantitation of 2,3-DPG in blood. The maximum decrease in 2,3-DPG on Day 14 was 55% from baseline (median). […] Table 13 reports the median percentage change in 2,3-DPG blood levels, relative to baseline, measured over time after the first dose on days 1 and 14 in healthy volunteers who received daily doses of Compound 1 (100 mg BID, 200 mg BID, or 300 mg BID) or placebo for 14 days. Accordingly, the median reduction in the concentration of 2,3-DPG, relative to baseline, was at least about 25% at all dose levels tested 24 hours after administration of the first dose on day 1 and at least about 40% at all dose levels tested 24 hours after administration of the first dose on day 14.
The following procedures are employed for the analysis of ATP and 2,3-DPG in human whole blood K2EDTA using a protein precipitation extraction procedure and analysis by LC-MS/MS.

[11] = test system: ATP blood levels; assay: SAD/MAD study in healthy volunteers, blood ATP levels (LC-MS/MS); format: in vivo, human; conditions: MAD cohorts, 60 hours after the last dose
From the text: This is a first-in-human (FIH), Phase 1 study of Compound 1 that will characterize the safety, PK, and PD of Compound 1 after a single dose and after repeated dosing first in healthy adult volunteers and then in adolescents or adults with sickle cell disease. Initially, a dose range of Compound 1 in single ascending dose (SAD) escalation cohorts will be explored in healthy subjects. Enrollment of healthy subjects into 2-week multiple ascending dose (MAD) escalation cohorts will be initiated once the safety and PK from at least two SAD cohorts is available to inform the doses for the 2-week MAD portion of the study. The MAD cohorts will then run in parallel to the single dose cohorts. […]
Four healthy SAD cohorts were evaluated at doses of 200, 400, 700, and 1000 mg, and four healthy MAD cohorts received 200 to 600 mg total daily doses for 14 days at QD or BID dosing (100 mg BID, 200 mg BID, 300 mg BID, and 400 mg QD). […]
In the MAD cohorts, the subjects' blood ATP levels were measured on day 14 by a qualified LC-MS/MS method for the quantitation of ATP in blood. […] Table 14 reports the median percentage change in blood ATP levels, relative to baseline, measured over time after the first dose on day 14 in healthy volunteers who received daily doses of Compound 1 (100 mg BID, or 200 mg BID) or placebo for 14 days. […]

[12] = SAD/MAD study in healthy volunteers, safety; format: in vivo, human; conditions: SAD and MAD cohorts of healthy volunteers
From the text: as §5, with “orally. Four healthy SAD cohorts were evaluated at doses of 200, 400, 700, and 1000 mg, and four healthy MAD cohorts received 200 to 600 mg total daily doses for 14 days at QD or BID dosing (100 mg BID, 200 mg BID, 300 mg BID, and 400 mg QD). In the food effect (FE) cohort, 10 healthy subjects received 200 mg of Compound 1 QD with and without food.” for “orally.”

[13] = SAD/MAD/food effect study in healthy volunteers, pharmacokinetics; format: in vivo, human
From the text: as §5, §6

[14] = PEP at or below Km, rate of ATP formation

AC50 [1]: > 40000 nM | AC50 [2]: > 40000 nM
SMILES: O=C(c1cn[nH]c1-c1ccccc1)N1CC2=C(C1)CN(S(=O)(=O)c1ccc3c(c1)OCCO3)C2 [Compound 8]

SMILES: O=C([C@H](CO)c1ccccc1)N1CC2=C(C1)CN(S(=O)(=O)c1cnc3c(c1)OCCO3)C2 (single isomer, unassigned) [Compound 1]
AC50 [1]: 100 to 1000 nM | AC50 [2]: ≤ 100 nM | Vmax (normalized) ([3]; 30 μM FBP, 2 μM Compound 1, normalized within row): 1.16 | Vmax (normalized) ([3]; No FBP, 2 μM Compound 1, normalized to 1.00 relative to other values in same row): 1.14 | AC50 ([3]; PEP at or below Km): < 50 nM | Maximum-fold Activation [3, 14]: <2.0 | Vmax (normalized) ([4]; 30 μM FBP): 1.29 | Vmax (normalized) ([4]; No FBP): 1.56 | AC50 ([4]; PEP at or below Km): < 100 nM | Maximum-fold Activation [4, 14]: <3.0 | EC50 ([5]; 3 hr treatment, individual replicates): < 50 nM | Max-Min (%), Mean (mean maximum activation increase) ([5]; mean of replicates): <100% | Emax ([5]; mean of replicates, read-out: Max-Min (%), Mean (mean maximum activation increase)): < 100% | EC50 ([6]; individual replicates, read-out: EC50): < 125 nM | EC50 ([6]; mean of replicates, read-out: EC50 (nM), Mean): < 125 nM | Reduction of 2,3-DPG levels [7]: > 30% | Adverse clinical signs [8]: No adverse clinical signs were observed | Body weight change compared with vehicle group [8]: no differences in body weight change | AUC(0-t) ([9]; doses ≥60 mg/kg): > 4000 ng·h/mL | AUC(0-t) ([9]; doses ≥120 mg/kg): > 5200 ng·h/mL | Dose dependence of exposure [9]: dose-proportional | 2,3-DPG levels after final dose ([10]; MAD cohorts, 72 hours after the final dose on Day 14): had not returned to baseline levels | Mean maximum reduction in concentration of 2,3-DPG ([10]; MAD study): at least 50% | Median reduction in concentration of 2,3-DPG relative to baseline ([10]; MAD, all dose levels, 24 hours after first dose on day 1): at least 25% | Median reduction in concentration of 2,3-DPG relative to baseline ([10]; MAD, all dose levels, 24 hours after first dose on day 14): at least 40% | Time of maximum decrease in 2,3-DPG levels after first dose ([10]; SAD cohorts): ~24 h | Time postdose to which 2,3-DPG reduction was sustained ([10]; SAD cohorts): 48 to 72 h | Mean maximum reduction in concentration of 2,3-DPG ([10]; SAD study): at least 40% | Median reduction in concentration of 2,3-DPG relative to baseline ([10]; all single dose levels tested, 24 hours after administration): at least 30% | PD half-life (2,3-DPG response) ([10]; healthy volunteers, calculated): ~20 h | ATP levels relative to baseline after last dose [11]: remained elevated | Serious adverse events / AEs leading to withdrawal [12]: No serious adverse events (SAEs) or AEs leading to withdrawal were reported | PK linearity, multiple doses ([13]; 100-300 mg BID, 400 mg QD): linear PK | Tmax ([13]; human, plasma, healthy volunteers, oral, postdose, read-out: Median Tmax): 1 h | Dose dependence of single dose exposure ([13]; single doses ≥700 mg): greater than dose-proportional

AC50 [1]: > 40000 nM | AC50 [2]: > 40000 nM
SMILES: O=C([C@H](CO)c1ccccc1)N1CC2=C(C1)CN(C(=O)[C@H](CO)c1ccccc1)C2 [Compound 7]
